Results taken from PMC11277489, “Novel Piperazine Derivatives of Vindoline as Anticancer Agents” (International Journal of Molecular Sciences, 2024).

Columns and labels:
COLO 205 = assay: NCI60 one-dose screen (10 μM), Colon Cancer; assay type: cell-based, human; details: Homo sapiens; 10 μM; COLO 205, Colon Cancer; read-out: Growth percent rate
SNB-75 = assay: NCI60 one-dose screen (10 μM), CNS Cancer; assay type: cell-based, human; details: Homo sapiens; 10 μM; SNB-75, CNS Cancer; read-out: Growth percent rate
HS 578T = assay: NCI60 one-dose screen (10 μM), Breast Cancer; assay type: cell-based; details: Homo sapiens; 10 μM; HS 578T, Breast Cancer; read-out: Growth percent rate
SK-MEL-28 = assay: NCI60 one-dose screen (10 μM), Melanoma; assay type: cell-based; details: Homo sapiens; 10 μM; SK-MEL-28, Melanoma; read-out: Growth percent rate
UACC-257 = assay: NCI60 one-dose screen (10 μM), Melanoma; assay type: cell-based; details: Homo sapiens; 10 μM; UACC-257, Melanoma; read-out: Growth percent rate
NCI-H23 = assay: NCI60 one-dose screen (10 μM), Non-small Cell Lung Cancer; assay type: cell-based; details: Homo sapiens; 10 μM; NCI-H23, Non-small Cell Lung Cancer; read-out: Growth percent rate
U251 = assay: NCI60 one-dose screen (10 μM), CNS Cancer; assay type: cell-based; details: Homo sapiens, U-251; 10 μM; U251, CNS Cancer; read-out: Growth percent rate
OVCAR-8 = assay: NCI60 one-dose screen (10 μM), Ovarian Cancer; assay type: cell-based; details: Homo sapiens; 10 μM; OVCAR-8, Ovarian Cancer; read-out: Growth percent rate
SF-268 = assay: NCI60 one-dose screen (10 μM), CNS Cancer; assay type: cell-based; details: Homo sapiens; 10 μM; SF-268, CNS Cancer; read-out: Growth percent rate
KM12 = assay: NCI60 one-dose screen (10 μM), Colon Cancer; assay type: cell-based, human; details: Homo sapiens; 10 μM; KM12, Colon Cancer; read-out: Growth percent rate
SK-MEL-2 = assay: NCI60 one-dose screen (10 μM), Melanoma; assay type: cell-based; details: Homo sapiens; 10 μM; SK-MEL-2, Melanoma; read-out: Growth percent rate
RPMI-8226 = assay: NCI60 one-dose screen (10 μM), Leukemia; assay type: cell-based; details: Homo sapiens; 10 μM; RPMI-8226, Leukemia; read-out: Growth percent rate
HCT-15 = assay: NCI60 one-dose screen (10 μM), Colon Cancer; assay type: cell-based; details: Homo sapiens; 10 μM; HCT-15, Colon Cancer; read-out: Growth percent rate
CCRF-CEM = assay: NCI60 one-dose screen (10 μM), Leukemia; assay type: cell-based; details: Homo sapiens, 10 μM, Leukemia, read-out: Growth percent rate
MDA-MB-435 = assay: NCI60 one-dose screen (10 μM), Melanoma; assay type: cell-based; details: Homo sapiens; 10 μM; MDA-MB-435, Melanoma; read-out: Growth percent rate
SN12C = assay: NCI60 one-dose screen (10 μM), Renal Cancer; assay type: cell-based; details: Homo sapiens, 10 μM, Renal Cancer, read-out: Growth percent rate
A498 = assay: NCI60 one-dose screen (10 μM), Renal Cancer; assay type: cell-based; details: Homo sapiens; 10 μM; A498, Renal Cancer; read-out: Growth percent rate
SW-620 = assay: NCI60 one-dose screen (10 μM), Colon Cancer; assay type: cell-based; details: Homo sapiens; 10 μM; SW-620, Colon Cancer; read-out: Growth percent rate
IGROV1 = assay: NCI60 one-dose screen (10 μM), Ovarian Cancer; assay type: cell-based; details: Homo sapiens, IGROV-1; 10 μM; IGROV1, Ovarian Cancer; read-out: Growth percent rate
HL-60(TB) = assay: NCI60 one-dose screen (10 μM), Leukemia; assay type: cell-based; details: Homo sapiens; 10 μM; HL-60(TB), Leukemia; read-out: Growth percent rate
NCI-H460 = assay: NCI60 one-dose screen (10 μM), Non-small Cell Lung Cancer; assay type: cell-based; details: Homo sapiens; 10 μM; NCI-H460, Non-small Cell Lung Cancer; read-out: Growth percent rate
NCI-H322M = assay: as above; assay type: cell-based; details: Homo sapiens, 10 μM, Non-small Cell Lung Cancer, read-out: Growth percent rate
MOLT-4 = assay: NCI60 one-dose screen (10 μM), Leukemia; assay type: cell-based, human; details: Homo sapiens; 10 μM; MOLT-4, Leukemia; read-out: Growth percent rate
ACHN = assay: NCI60 one-dose screen (10 μM), Renal Cancer; assay type: cell-based; details: Homo sapiens, 10 μM, Renal Cancer, read-out: Growth percent rate
OVCAR-3 = assay: NCI60 one-dose screen (10 μM), Ovarian Cancer; assay type: cell-based; details: Homo sapiens; 10 μM; OVCAR-3, Ovarian Cancer; read-out: Growth percent rate
LOX IMVI = assay: NCI60 one-dose screen (10 μM), Melanoma; assay type: cell-based, human; details: Homo sapiens; 10 μM; LOX IMVI, Melanoma; read-out: Growth percent rate
HCT-116 = assay: NCI60 one-dose screen (10 μM), Colon Cancer; assay type: cell-based; details: Homo sapiens; 10 μM; HCT-116, Colon Cancer; read-out: Growth percent rate
MCF7 = assay: NCI60 one-dose screen (10 μM), Breast Cancer; assay type: cell-based; details: Homo sapiens; 10 μM; MCF7, Breast Cancer; read-out: Growth percent rate
SF-539 = assay: NCI60 one-dose screen (10 μM), CNS Cancer; assay type: cell-based, human; details: Homo sapiens; 10 μM; SF-539, CNS Cancer; read-out: Growth percent rate
MALME-3M = assay: NCI60 one-dose screen (10 μM), Melanoma; assay type: cell-based; details: Homo sapiens; 10 μM; MALME-3M, Melanoma; read-out: Growth percent rate
CAKI-1 = assay: NCI60 one-dose screen (10 μM), Renal Cancer; assay type: cell-based; details: Homo sapiens; 10 μM; CAKI-1, Renal Cancer; read-out: Growth percent rate
K-562 = assay: NCI60 one-dose screen (10 μM), Leukemia; assay type: cell-based; details: Homo sapiens, K562; 10 μM; K-562, Leukemia; read-out: Growth percent rate
SF-295 = assay: NCI60 one-dose screen (10 μM), CNS Cancer; assay type: cell-based; details: Homo sapiens; 10 μM; SF-295, CNS Cancer; read-out: Growth percent rate
HOP-62 = assay: NCI60 one-dose screen (10 μM), Non-small Cell Lung Cancer; assay type: cell-based; details: Homo sapiens; 10 μM; HOP-62, Non-small Cell Lung Cancer; read-out: Growth percent rate
EKVX = assay: as above; assay type: cell-based; details: Homo sapiens, 10 μM, Non-small Cell Lung Cancer, read-out: Growth percent rate
[1] = system: 60 human tumor cell lines (NCI60); assay: NCI60 one-dose screen (10 μM), whole panel; assay type: cell-based; details: 10 μM; mean over 60 human cancer cell lines; read-out: Growth percent rate, Mean
OVCAR-4 = assay: NCI60 one-dose screen (10 μM), Ovarian Cancer; assay type: cell-based; details: Homo sapiens; 10 μM; OVCAR-4, Ovarian Cancer; read-out: Growth percent rate
786–0 = assay: NCI60 one-dose screen (10 μM), Renal Cancer; assay type: cell-based; details: Homo sapiens; 10 μM; 786-0, Renal Cancer; read-out: Growth percent rate
TK-10 = assay: NCI60 one-dose screen (10 μM), Renal Cancer; assay type: cell-based; details: Homo sapiens; 10 μM; TK-10, Renal Cancer; read-out: Growth percent rate
A549/ATCC = assay: NCI60 one-dose screen (10 μM), Non-small Cell Lung Cancer; assay type: cell-based; details: Homo sapiens; 10 μM; A549/ATCC, Non-small Cell Lung Cancer; read-out: Growth percent rate
RXF 393 = assay: NCI60 one-dose screen (10 μM), Renal Cancer; assay type: cell-based, human; details: Homo sapiens; 10 μM; RXF 393, Renal Cancer; read-out: Growth percent rate
NCI-H522 = assay: NCI60 one-dose screen (10 μM), Non-small Cell Lung Cancer; assay type: cell-based; details: Homo sapiens; 10 μM; NCI-H522, Non-small Cell Lung Cancer; read-out: Growth percent rate

Work on `CCC12C=CCN3CCC4(c5cc(NC(=O)CN6CCN(C)CC6)c(OC)cc5N(C)C4C(O)(C(=O)OC)C1OC(C)=O)C32` (stereo not drawn) [Compound 16] yielded an activity at 10 µM (COLO 205) of 105%, an activity at 10 µM (SNB-75) of 95.6% and an activity at 10 µM (HS 578T) of 111%. It also gave an activity at 10 µM (SK-MEL-28) of 111%, an activity at 10 µM (UACC-257) of -7.95% and an activity at 10 µM (NCI-H23) of 103%. For the same compound, the activity at 10 µM (U251) was 97.4%, the activity at 10 µM (OVCAR-8) was 97.8% and the activity at 10 µM (SF-268) was 116%. It also gave an activity at 10 µM (KM12) of 112%, an activity at 10 µM (SK-MEL-2) of 108% and an activity at 10 µM (RPMI-8226) of 102%. The activity at 10 µM (HCT-15) was 101%, the activity at 10 µM (CCRF-CEM) was 112% and the activity at 10 µM (MDA-MB-435) was 114%. For the same compound, the activity at 10 µM (SN12C) was 109%, the activity at 10 µM (A498) was 158% and the activity at 10 µM (SW-620) was 124%. It also gave an activity at 10 µM (IGROV1) of 112%, an activity at 10 µM (HL-60(TB)) of 97.5% and an activity at 10 µM (NCI-H460) of 142%. The activity at 10 µM (NCI-H322M) was 101%, the activity at 10 µM (MOLT-4) was 108% and the activity at 10 µM (ACHN) was 104%. The activity at 10 µM (OVCAR-3) was 138%, the activity at 10 µM (LOX IMVI) was 95.2% and the activity at 10 µM (HCT-116) was 101%. It also gave an activity at 10 µM (MCF7) of 84.3%, an activity at 10 µM (SF-539) of 101% and an activity at 10 µM (MALME-3M) of 97.5%. The activity at 10 µM (CAKI-1) was 89.5%, the activity at 10 µM (K-562) was 85.8% and the activity at 10 µM (SF-295) was 98.8%. The activity at 10 µM (HOP-62) was 104%, the activity at 10 µM (EKVX) was 94.8% and the activity at 10 µM [1] was 103%. For the same compound, the activity at 10 µM (OVCAR-4) was 109%, the activity at 10 µM (786–0) was 106% and the activity at 10 µM (TK-10) was 103%. It also gave an activity at 10 µM (A549/ATCC) of 97.1%, an activity at 10 µM (RXF 393) of 102% and an activity at 10 µM (NCI-H522) of 90.2%.

`CC[C@]12C=CCN3CC[C@@]4(c5ccc(OC)cc5N(C)[C@H]4[C@@](O)(C(=O)OC)[C@@H]1OC(=O)CCC(=O)N1CCN(C)CC1)[C@@H]32` [Compound 27] gave an activity at 10 µM (COLO 205) of 118%, an activity at 10 µM (SNB-75) of 64.3% and an activity at 10 µM (HS 578T) of 70.8%. The activity at 10 µM (SK-MEL-28) was 94.8%, the activity at 10 µM (UACC-257) was 99.2% and the activity at 10 µM (NCI-H23) was 98.9%. For the same compound, the activity at 10 µM (U251) was 110%, the activity at 10 µM (OVCAR-8) was 99.6% and the activity at 10 µM (SF-268) was 99.5%. For the same compound, the activity at 10 µM (KM12) was 100%, the activity at 10 µM (SK-MEL-2) was 88.2% and the activity at 10 µM (RPMI-8226) was 94.5%. It also gave an activity at 10 µM (HCT-15) of 103%, an activity at 10 µM (CCRF-CEM) of 104% and an activity at 10 µM (MDA-MB-435) of 121%. It also gave an activity at 10 µM (SN12C) of 86.7%, an activity at 10 µM (A498) of 105% and an activity at 10 µM (SW-620) of 105%. For the same compound, the activity at 10 µM (IGROV1) was 96.8%, the activity at 10 µM (HL-60(TB)) was 112% and the activity at 10 µM (NCI-H460) was 102%. The activity at 10 µM (NCI-H322M) was 110%, the activity at 10 µM (MOLT-4) was 100% and the activity at 10 µM (ACHN) was 99.2%. The activity at 10 µM (OVCAR-3) was 89.2%, the activity at 10 µM (LOX IMVI) was 93% and the activity at 10 µM (HCT-116) was 103%. For the same compound, the activity at 10 µM (MCF7) was 81%, the activity at 10 µM (SF-539) was 100% and the activity at 10 µM (MALME-3M) was 112%. It also gave an activity at 10 µM (CAKI-1) of 96.6%, an activity at 10 µM (K-562) of 124% and an activity at 10 µM (SF-295) of 97.9%. For the same compound, the activity at 10 µM (HOP-62) was 119%, the activity at 10 µM (EKVX) was 90.7% and the activity at 10 µM [1] was 99.5%. The activity at 10 µM (OVCAR-4) was 105%, the activity at 10 µM (786–0) was 99.7% and the activity at 10 µM (TK-10) was 91.9%. The activity at 10 µM (A549/ATCC) was 94.2%, the activity at 10 µM (RXF 393) was 82.3% and the activity at 10 µM (NCI-H522) was 84.5%.
